The source of these data is patent publication US20190284148A1, “MICROBIOCIDAL OXADIAZOLE DERIVATIVES” (SYNGENTA PARTICIPATIONS AG, priority 2016, published 2019).

The test system of data set [1] is Glomerella Lagenarium (Colletotrichum Lagenarium). The data set is described as follows: Glomerella lagenarium (Colletotrichum lagenarium) liquid culture / cucumber / preventative (anthracnose). It is filed as cell-based. Particulars: Colletotrichum orbiculare; 20 ppm in the applied formulation; liquid culture in PDB, 24° C., 3 to 4 days after application; read-out: disease control compared to untreated control (inhibition of growth measured photometrically). The procedure:
Mycelia fragments or conidia suspensions of a fungus prepared either freshly from liquid cultures of the fungus or from cryogenic storage, are directly mixed into nutrient broth. DMSO solutions of the test compound (max. 10 mg/ml) are diluted with 0.025% Tween20 by a factor of 50 and 10 μl of this solution is pipetted into a microtiter plate (96-well format). The nutrient broth containing the fungal spores/mycelia fragments is then added to give an end concentration of the tested compound. The test plates are incubated in the dark at 24° C. and 96% relative humidity. The inhibition of fungal growth is determined photometrically after 2 to 7 days, depending on the pathosystem, and percent antifungal activity relative to the untreated check is calculated.
Conidia of the fungus from cryogenic storage are directly mixed into nutrient broth (PDB—potato dextrose broth). After placing a (DMSO) solution of test compound into a microtiter plate (96-well format), the nutrient broth containing the fungal spores is added. The test plates are incubated at 24° C. and the inhibition of growth is measured photometrically 3 to 4 days after application.
The following compounds at 20 ppm in the applied formulation give at least 80% disease control in this test when compared to untreated control under the same conditions, which show extensive disease development.

Data set [2] relates to Puccinia Recondita f. sp. Tritici. The data set is described as follows: Puccinia recondita f. sp. tritici / wheat / leaf disc preventative (brown rust). It is filed as in vivo. Conditions: foliar, 200 ppm in the applied formulation, wheat leaf segments cv. Kanzler, preventative (inoculated 1 day after application), assessed 7 to 9 days after application, read-out: disease control compared to untreated control leaf disks. The procedure: Leaf disks or leaf segments of various plant species are cut from plants grown in a greenhouse. The cut leaf disks or segments are placed in multiwell plates (24-well format) onto water agar. The leaf disks are sprayed with a test solution before (preventative) or after (curative) inoculation. Compounds to be tested are prepared as DMSO solutions (max. 10 mg/ml) which are diluted to the appropriate concentration with 0.025% Tween20 just before spraying. The inoculated leaf disks or segments are incubated under defined conditions (temperature, relative humidity, light, etc.) according to the respective test system. A single evaluation of disease level is carried out 3 to 14 days after inoculation, depending on the pathosystem. Percent disease control relative to the untreated check leaf disks or segments is then calculated. Wheat leaf segments cv. Kanzler were placed on agar in multiwell plates (24-well format) and sprayed with the formulated test compound diluted in water. The leaf disks were inoculated with a spore suspension of the fungus 1 day after application. The inoculated leaf segments were incubated at 19° C. and 75% relative humidity (rh) under a light regime of 12 hours light/12 hours darkness in a climate cabinet and the activity of a compound was assessed as percent disease control compared to untreated when an appropriate level of disease damage appears in untreated check leaf segments (7 to 9 days after application). The following compounds at 200 ppm in the applied formulation give at least 80% disease control in this test when compared to untreated control leaf disks under the same conditions, which show extensive disease development.

Data set [3] has the same test system. The data set is described as follows: Puccinia recondita f. sp. tritici / wheat / leaf disc curative (brown rust). Conditions: foliar, 200 ppm in the applied formulation, wheat leaf segments cv. Kanzler, curative (applied 1 day after inoculation), assessed 6 to 8 days after application, read-out: disease control compared to untreated control leaf disks. It is filed as in vivo. As for the experimental part:
Leaf disks or leaf segments of various plant species are cut from plants grown in a greenhouse. The cut leaf disks or segments are placed in multiwell plates (24-well format) onto water agar. The leaf disks are sprayed with a test solution before (preventative) or after (curative) inoculation. Compounds to be tested are prepared as DMSO solutions (max. 10 mg/ml) which are diluted to the appropriate concentration with 0.025% Tween20 just before spraying. The inoculated leaf disks or segments are incubated under defined conditions (temperature, relative humidity, light, etc.) according to the respective test system. A single evaluation of disease level is carried out 3 to 14 days after inoculation, depending on the pathosystem. Percent disease control relative to the untreated check leaf disks or segments is then calculated.
Wheat leaf segments cv. Kanzler are placed on agar in multiwell plates (24-well format). The leaf segments are then inoculated with a spore suspension of the fungus. Plates were stored in darkness at 19° C. and 75% relative humidity. The formulated test compound diluted in water was applied 1 day after inoculation. The leaf segments were incubated at 19° C. and 75% relative humidity under a light regime of 12 hours light/12 hours darkness in a climate cabinet and the activity of a compound was assessed as percent disease control compared to untreated when an appropriate level of disease damage appears in untreated check leaf segments (6 to 8 days after application).
The following compounds at 200 ppm in the applied formulation give at least 80% disease control in this test when compared to untreated control leaf disks under the same conditions, which show extensive disease development.

In the case of `CC(=O)Nc1ccc(-c2noc(C(F)(F)F)n2)cc1Cl` [Compound 1.1, N-[2-chloro-4-[5-(trifluoromethyl)-1,2,4-oxadiazol-3-yl]phenyl]acetamide], the melting point was in the range of 155 to 170 °C. For the same compound, in data set [1], the inhibition at 20 ppm was ≥ 80%.
Compound `COCC(=O)Nc1ccc(-c2noc(C(F)(F)F)n2)cc1Cl` [Compound 1.2, N-[2-chloro-4-[5-(trifluoromethyl)-1,2,4-oxadiazol-3-yl]phenyl]-2-methoxy-acetamide] showed a melting point of 77 to 84 °C. In addition, the inhibition at 20 ppm in data set [1] is ≥ 80%.
Taken in the same sequence, the figures for `CCC(=O)Nc1ccc(-c2noc(C(F)(F)F)n2)cc1C` [Compound 1.4, N-[2-methyl-4-[5-(trifluoromethyl)-1,2,4-oxadiazol-3-yl]phenyl]propanamide] were 178 to 185 °C and ≥ 80%.
The compound `COCC(=O)Nc1ccc(-c2noc(C(F)(F)F)n2)cc1C` [Compound 1.5, 2-methoxy-N-[2-methyl-4-[5-(trifluoromethyl)-1,2,4-oxadiazol-3-yl]phenyl]acetamide] came in with a melting point of 73 to 80 °C. The pest or weed control at 200 ppm in data set [2] was ≥ 80%. Also, the inhibition at 20 ppm in data set [1] was ≥ 80%.
In turn, `CCC(=O)Nc1ccc(-c2noc(C(F)(F)F)n2)cc1F` [Compound 1.6, N-[2-fluoro-4-[5-(trifluoromethyl)-1,2,4-oxadiazol-3-yl]phenyl]propanamide] had a melting point of 123 to 128 °C. Moreover, the pest or weed control at 200 ppm in data set [3] was ≥ 80%. Further, the inhibition at 20 ppm in data set [1] is ≥ 80%.
Compound `COCC(=O)Nc1ccc(-c2noc(C(F)(F)F)n2)cc1F` [Compound 1.8, N-[2-fluoro-4-[5-(trifluoromethyl)-1,2,4-oxadiazol-3-yl]phenyl]-2-methoxy-acetamide] showed a melting point of 42 to 46 °C. The pest or weed control at 200 ppm in data set [2] was ≥ 80%. Further, in data set [1], the inhibition at 20 ppm was ≥ 80%.
Compound `C=CCON(C)C(=O)Nc1ccc(-c2noc(C(F)(F)F)n2)cc1C` [Compound 1.11, 1-allyloxy-1-methyl-3-[2-methyl-4-[5-(trifluoromethyl)-1,2,4-oxadiazol-3-yl]phenyl]urea] showed a melting point of 62 to 66 °C. Further, the inhibition at 20 ppm in data set [1] was ≥ 80%.
`C=C(C)CONC(=O)Nc1ccc(-c2noc(C(F)(F)F)n2)cc1C` [Compound 1.12, 1-(2-methylallyloxy)-3-[2-methyl-4-[5-(trifluoromethyl)-1,2,4-oxadiazol-3-yl]phenyl]urea] yielded a melting point of 114 to 117 °C. The pest or weed control at 200 ppm in data set [2] was ≥ 80%. Further, the inhibition at 20 ppm in data set [1] is ≥ 80%.
The compound `C=CCONC(=O)Nc1ccc(-c2noc(C(F)(F)F)n2)cc1C` [Compound 1.13, 1-allyloxy-3-[2-methyl-4-[5-(trifluoromethyl)-1,2,4-oxadiazol-3-yl]phenyl]urea] displayed a melting point of 101 to 104 °C. In data set [2], the pest or weed control at 200 ppm was ≥ 80%. The inhibition at 20 ppm in data set [1] was ≥ 80%.
Take `CC(C)C(=O)Nc1ccc(-c2noc(C(F)(F)F)n2)cc1F` [Compound 1.14, N-[2-fluoro-4-[5-(trifluoromethyl)-1,2,4-oxadiazol-3-yl]phenyl]-2-methyl-propanamide]: in data set [1], the inhibition at 20 ppm was ≥ 80%.
Turning to `COCCC(=O)Nc1ccc(-c2noc(C(F)(F)F)n2)cc1F` [Compound 1.15, N-[2-fluoro-4-[5-(trifluoromethyl)-1,2,4-oxadiazol-3-yl]phenyl]-3-methoxy-propanamide], the pest or weed control at 200 ppm in data set [3] was ≥ 80%. In addition, in data set [1], the inhibition at 20 ppm is ≥ 80%.
Consider `CCC(C)C(=O)Nc1ccc(-c2noc(C(F)(F)F)n2)cc1F` (stereo not shown) [Compound 1.16, N-[2-fluoro-4-[5-(trifluoromethyl)-1,2,4-oxadiazol-3-yl]phenyl]-2-methyl-butanamide], for which, in data set [1], the inhibition at 20 ppm is ≥ 80%.
As to `CC(CO)(CCl)C(=O)Nc1ccc(-c2noc(C(F)(F)F)n2)cc1F` (stereo not shown) [Compound 1.17, 2-(chloromethyl)-N-[2-fluoro-4-[5-(trifluoromethyl)-1,2,4-oxadiazol-3-yl]phenyl]-3-hydroxy-2-methyl-propanamide], in data set [2], the pest or weed control at 200 ppm is ≥ 80%. Besides, in data set [1], the inhibition at 20 ppm is ≥ 80%.
As for `CCC(COC)C(=O)Nc1ccc(-c2noc(C(F)(F)F)n2)cc1F` (stereo not shown) [Compound 1.18, N-[2-fluoro-4-[5-(trifluoromethyl)-1,2,4-oxadiazol-3-yl]phenyl]-2-(methoxymethyl) butanamide], the pest or weed control at 200 ppm in data set [2] and in data set [3] was ≥ 80% each time. The inhibition at 20 ppm in data set [1] was ≥ 80%.
As to `COCCCC(=O)Nc1ccc(-c2noc(C(F)(F)F)n2)cc1F` [Compound 1.19, N-[2-fluoro-4-[5-(trifluoromethyl)-1,2,4-oxadiazol-3-yl]phenyl]-4-methoxy-butanamide], in data set [2], the pest or weed control at 200 ppm was ≥ 80%. Besides, the inhibition at 20 ppm in data set [1] was ≥ 80%.
For `COCCC(=O)Nc1ccc(-c2noc(C(F)(F)F)n2)cc1C` [Compound 1.21, 3-methoxy-N-[2-methyl-4-[5-(trifluoromethyl)-1,2,4-oxadiazol-3-yl]phenyl]propanamide], the inhibition at 20 ppm in data set [1] is ≥ 80%.
On the same count and under the same terms, under `Cc1cc(-c2noc(C(F)(F)F)n2)ccc1NC(=O)C(C)(CO)CCl` (stereo not shown) [Compound 1.23, 2-(chloromethyl)-3-hydroxy-2-methyl-N-[2-methyl-4-[5-(trifluoromethyl)-1,2,4-oxadiazol-3-yl]phenyl]propanamide] stands ≥ 80%; under `CCC(COC)C(=O)Nc1ccc(-c2noc(C(F)(F)F)n2)cc1C` (stereo not shown) [Compound 1.24, 2-(methoxymethyl)-N-[2-methyl-4-[5-(trifluoromethyl)-1,2,4-oxadiazol-3-yl]phenyl]butanamide], ≥ 80%; under `COCCCC(=O)Nc1ccc(-c2noc(C(F)(F)F)n2)cc1C` [Compound 1.25, 4-methoxy-N-[2-methyl-4-[5-(trifluoromethyl)-1,2,4-oxadiazol-3-yl]phenyl]butanamide], ≥ 80%.
On to `Cc1cc(-c2noc(C(F)(F)F)n2)ccc1NC(=O)CC#N` [Compound 1.26, 2-cyano-N-[2-methyl-4-[5-(trifluoromethyl)-1,2,4-oxadiazol-3-yl]phenyl]acetamide], for which, in data set [2], the pest or weed control at 200 ppm is ≥ 80%. Also, in data set [1], the inhibition at 20 ppm was ≥ 80%.
Consider `COC(C)C(=O)Nc1ccc(-c2noc(C(F)(F)F)n2)cc1C` (stereo not shown) [Compound 1.27, 2-methoxy-N-[2-methyl-4-[5-(trifluoromethyl)-1,2,4-oxadiazol-3-yl]phenyl]propanamide], for which the pest or weed control at 200 ppm in data set [3] is ≥ 80%. In addition, the inhibition at 20 ppm in data set [1] was ≥ 80%.
For `Cc1cc(-c2noc(C(F)(F)F)n2)ccc1NC(=O)CC(F)(F)F` [Compound 1.28, 3,3,3-trifluoro-N-[2-methyl-4-[5-(trifluoromethyl)-1,2,4-oxadiazol-3-yl]phenyl]propanamide], the pest or weed control at 200 ppm in data set [2] was ≥ 80%.

The inhibition is the share of the control response that was lost under treatment. For orientation: melting point means the temperature of the solid-liquid transition.
